Patent US9987242B2, “Treatment of Levodopa-induced Dyskinesias” (NORTHWESTERN UNIVERSITY, priority 2015, dated 2018)
“Also recorded” adds a separate entry of the source.

Legend:
[1] = test system: NMDAR-mediated currents in dSPNs; experiment: NMDAR-mediated uEPSCs and EPSCs in dSPNs, whole-cell voltage clamp; type: cell-based, mice; conditions: for amplitude of NMDAR-mediated uEPSCs: muscarine and VU10010 5 μM in the presence of SKF81297, glutamate uncaging
Protocol: For whole-cell voltage clamp recordings, patch pipettes were loaded with internal recording solution containing (mM): 120 CsMeSO3, 15 CsCl, 8 NaCl, 10 HEPES, 0.2 EGTA, 10 tetraethylammonium Chloride (TEA-Cl), 5 QX-314, 2 Mg-ATP, 0.3 Na-GTP; pH was adjusted to 7.25 with CsOH and osmolarity to ˜305 mOsm l^−1. All the recordings were made using a MultiClamp 700 A amplifier, and signals were filtered at 2 kHz and digitized at 10 kHz. Data were excluded when the series resistance changed >20% over the time course of the experiment. For perforated patch recordings, the internal recording solution comprised (in mM): 125 KMeSO4, 14 KCl, 2 MgCl2, 0.2 EGTA, 10 HEPES; pH was adjusted to 7.25 with NaOH and osmolarity to ˜280 mOsm l^−1. Amphotericin B was used to achieve electrical access through the perforated-patch method (Shen et al., 2007; 2008; herein incorporated by reference in their entireties). Capacitance current was continuously monitored during perforation by applying a 5-10 mV pulse from a holding potential of −70 mV. The amplifier bridge circuit was adjusted to compensate for series resistance and continuously monitored during recordings. Electrode capacitance was also compensated. Data were excluded when the input resistance (Ri) changed >20% over the time course of the experiment.
Glutamate uncaging was achieved using a Verdi/Mira (Coherent Laser Group, Santa Clara, Calif.) (Plotkin et al., 2014). 5 mM MNI-glutamate was superfused over the slice at 0.4 ml/hr using a syring pump and multi-barreled perfusion manifold (Cell MicroControls, Norfolk, Va.). The perfusion solution was (in mM): 124 NaCl, 3 KCl, 2 CaCl2, 1 NaH2PO4, 26 HEPES and 16.66 glucose, and also contained (in μM): 3 muscarine, 10 serine, 10 NBQX and 10 gabazine, plus or minus: 3 SKF81297 and/or 5 VU10010). Glutamate was uncaged adjacent to individual spines using 1 ms pulses of 720-725 nm light typically 10-20 mW in power at the sample plane. Photolysis power was tuned via a third Pockels cell modulator (Con Optics, Danbury, Conn.) to achieve uEPSCs≤5 pA. uEPSC amplitudes were measured from averaged (3-5 repetitions) traces. All uncaging experiments were performed in 0 mM Mg^2+-containing solutions.
To determine the situation in dSPNs, the effect of muscarine and VU10010 on NMDAR-mediated EPSCs evoked by uncaging glutamate on spine heads (uEPSCs) was examined in the presence of SKF81297.

[2] = test system: dSPN glutamatergic synapses; experiment: Spike-timing-dependent LTP induction (pre-post pairing) in dSPNs, ex vivo slices; type: cell-based, mice; conditions: VU10010 5 μM

With `Cc1cc(C)c2c(N)c(C(=O)NCc3ccc(Cl)cc3)sc2n1` [VU10010] the “muscarine modulation of NMDAR-mediated EPSCs” value ([1]; muscarine 3 μM + VU10010 5 μM, local electrical stimulation) was “augmented”, the “amplitude of NMDAR-mediated uEPSCs” value [1] was “significantly reduced the amplitude” and the “amplitude of NMDAR-mediated uEPSCs” value ([1]; listed as VU 10010) was “suppressed NMDAR-mediated uEPSC currents”. For the same compound, the “STDP LTP induction in dSPNs” value ([2]; dyskinetic (LID) mice) was “blocked the induction of STDP LTP; also recorded: LTP was disrupted” and the “STDP LTP induction in dSPNs” value ([2]; naive mice) was “disrupted STDP LTP induction; also recorded: LTP induction was also blocked”.
